Reference: ChEMBL document CHEMBL3045542, “A quantitative structure-activity relationship study of herbicidal analogues of alpha-hydroxy-substituted 3-benzylidenepyrrolidene-2,4-diones” (2006)

Experiments:
Assay type in all cases: functional
[1] = tested on: Digitaria sanguinalis; assay: Herbicidal activity against Digitaria sanguinalis (hairy crabgrass) assessed as inhibition of plant growth at 375 g/ha applied as pre-emergence treatment
[2] = tested on: Digitaria sanguinalis; assay: Herbicidal activity against Digitaria sanguinalis (hairy crabgrass) assessed as inhibition of plant growth at 750 g/ha applied as pre-emergence treatment
[3] = tested on: Echinochloa crus-galli; assay: Herbicidal activity against Echinochloa crus-galli (barnyard grass) assessed as inhibition of plant growth at 93.75 g/ha applied as pre-emergence treatment; conditions: for inhibition at 93.75 g/ha: Echinochloa crus-galli, pre-emergence
[4] = tested on: Echinochloa crus-galli; assay: Herbicidal activity against Echinochloa crus-galli (barnyard grass) assessed as inhibition of plant growth at 187.5 g/ha applied as pre-emergence treatment; conditions: for inhibition at 187.5 g/ha: Echinochloa crus-galli, pre-emergence
[5] = tested on: Echinochloa crus-galli; assay: Herbicidal activity against Echinochloa crus-galli (barnyard grass) assessed as inhibition of plant growth at 750 g/ha applied as pre-emergence treatment; conditions: for inhibition at 750 g/ha: Echinochloa crus-galli, pre-emergence
[6] = tested on: Echinochloa crus-galli; assay: Herbicidal activity against Echinochloa crus-galli (barnyard grass) assessed as inhibition of plant growth at 375 g/ha applied as pre-emergence treatment; conditions: for inhibition at 375 g/ha: Echinochloa crus-galli, pre-emergence
[7] = tested on: Digitaria sanguinalis; assay: Herbicidal activity against Digitaria sanguinalis (hairy crabgrass) assessed as inhibition of plant growth at 187.5 g/ha applied as pre-emergence treatment
[8] = tested on: Digitaria sanguinalis; assay: Herbicidal activity against Digitaria sanguinalis (hairy crabgrass) assessed as inhibition of plant growth at 93.75 g/ha applied as pre-emergence treatment
[9] = tested on: Echinochloa crus-galli; assay: Herbicidal activity against Echinochloa crus-galli (barnyard grass) assessed as inhibition of plant growth at 10 ug/mL by cup test
[10] = Digitaria sanguinalis, pre-emergence, tested as the Zn salt or complex
[11] = tested as the Zn salt or complex

| SMILES | inhibition at 10 µg/mL [9] [%] | further results |
| --- | --- | --- |
| CCOc1ccc(/C([O-])=C2\C(=O)CN(C(C)C)C2=O)cc1.CCOc1ccc(/C([O-])=C2\C(=O)CN(C(C)C)C2=O)cc1.[Zn+2] |  | inhibition (INH) [1]: 100%; inhibition at 750 g/ha [2, 10]: 100%; inhibition (INH) [3]: 57%; inhibition at 187.5 g/ha [4, 11]: 96%; inhibition at 750 g/ha [5, 11]: 100%; inhibition at 375 g/ha [6, 11]: 100%; inhibition at 187.5 g/ha [7, 10]: 64%; inhibition at 93.75 g/ha [8, 10]: 8% |
| CC(C)c1ccc(/C(O)=C2\C(=O)CN(C(C)(C)C)C2=O)cc1 | 10 |  |
| CC(C)Oc1ccc(/C(O)=C2\C(=O)CN(C(C)C)C2=O)cc1 | 79 |  |
| CCC(C)N1CC(=O)/C(=C(/O)c2cc(OC)c(OC)cc2OC)C1=O (configuration not stated) | 18 |  |
| CC(C)N1CC(=O)/C(=C(/O)c2ccc(C(C)(C)C)cc2)C1=O | 28 |  |
| Cc1cccc(/C(O)=C2\C(=O)CN(Cc3ccccc3)C2=O)c1 | 12 |  |
| COc1ccc(/C(O)=C2\C(=O)CN(C(C)(C)C)C2=O)cc1 | 10 | inhibition at 93.75 g/ha [3]: 0%; inhibition at 187.5 g/ha [4]: 0%; inhibition at 750 g/ha [5]: 14%; inhibition at 375 g/ha [6]: 0% |
| CN1CC(=O)/C(=C(/O)c2cccc(Oc3ccccc3)c2)C1=O | 53 |  |
| CCOc1ccc(/C(O)=C2\C(=O)CN(C(C)C)C2=O)c(OC)c1 | 69 |  |
| CCC(C)N1CC(=O)/C(=C(/O)c2ccc(OC(C)C)cc2)C1=O (configuration not stated) | 46 |  |
| Cc1ccc(/C(O)=C2\C(=O)CN(C(C)C)C2=O)cc1 | 77 |  |
| O=C1CN(Cc2ccccc2)C(=O)/C1=C(\O)c1ccccc1 | 2 | inhibition at 93.75 g/ha [3]: 0%; inhibition at 187.5 g/ha [4]: 0%; inhibition at 750 g/ha [5]: 0%; inhibition at 375 g/ha [6]: 0% |
| Cc1ccc(/C(O)=C2\C(=O)CN(C(C)C)C2=O)c(C)c1 | 74 |  |
| COc1ccc(C(=O)C2=C(O)N(C(C)C)CCC2=O)cc1 | 0 |  |
| COc1ccc(/C([O-])=C2\C(=O)CN(C(C)C)C2=O)c(OC)c1.[Na+] |  | inhibition (INH) [1]: 100%; inhibition (INH) [2]: 100%; inhibition (INH) [3]: 73%; inhibition (INH) [4]: 100%; inhibition (INH) [5]: 100%; inhibition (INH) [6]: 100%; inhibition (INH) [7]: 90%; inhibition (INH) [8]: 10% |
| CCOc1ccc(/C(O)=C2\C(=O)CN(C3CC3)C2=O)cc1 | 78 |  |
| CCCCOc1ccc(/C(O)=C2\C(=O)CN(C(C)CC)C2=O)cc1 (configuration not stated) | 28 |  |
| CCCc1ccc(/C(O)=C2\C(=O)CN(C(C)CC)C2=O)cc1 (configuration not stated) | 18 |  |
| CCCCCc1ccc(/C(O)=C2\C(=O)CN(C3CC3)C2=O)cc1 | 5 |  |
| Cc1cc(C)cc(/C(O)=C2\C(=O)CN(C(C)C)C2=O)c1 | 22 |  |
| CCOc1ccc(/C(O)=C2\C(=O)CN(C(C)C)C2=O)c(OCC)c1 | 26 |  |
| Cc1ccc(/C(O)=C2\C(=O)CN(Cc3ccccc3)C2=O)cc1 | 8 |  |

| SMILES | inhibition at 10 µg/mL [9] [%] | further results |
| --- | --- | --- |
| COc1ccc(/C(O)=C2\C(=O)C(C)N(C(C)C)C2=O)cc1 (configuration not stated) | 4 |  |
| Cc1ccccc1/C(O)=C1\C(=O)CN(C(C)(C)C)C1=O | 64 |  |
| CC(C)Oc1cccc(/C(O)=C2\C(=O)CN(C(C)C)C2=O)c1 | 9 |  |
| COc1ccc(/C(O)=C2\C(=O)CN(C3CC3)C2=O)c(OC)c1 | 78 |  |
| CC(C)N1CC(=O)/C(=C(/O)c2ccccc2Cl)C1=O | 51 |  |
| Cc1ccccc1/C(O)=C1\C(=O)CN(C(C)C)C1=O | 77 |  |
| C=CCOc1ccc(/C(O)=C2\C(=O)C(C)N(C(C)C)C2=O)c(OC)c1 (configuration not stated) | 44 |  |
| Cc1ccccc1/C(O)=C1\C(=O)CN(Cc2ccccc2)C1=O | 15 |  |
| CCCCCc1ccc(/C(O)=C2\C(=O)CN(C)C2=O)cc1 | 16 |  |
| C=CCOc1ccc(/C(O)=C2\C(=O)CN(C(C)C)C2=O)c(OC)c1 | 77 |  |
| CCCc1ccc(/C(O)=C2\C(=O)CN(C(C)C)C2=O)cc1 | 27 |  |
| CCCCOc1cccc(/C(O)=C2\C(=O)CN(C(C)C)C2=O)c1 | 47 |  |
| CC(C)(C)c1ccc(/C(O)=C2\C(=O)CN(C(C)(C)C)C2=O)cc1 | 4 |  |
| CCOc1ccc(/C(O)=C2\C(=O)C(C)N(C(C)C)C2=O)c(OC)c1 (configuration not stated) | 32 |  |
| CCC(C)N1CC(=O)/C(=C(/O)c2ccc(OC(C)C)cc2OC)C1=O (configuration not stated) | 33 |  |
| Cc1cccc(/C(O)=C2\C(=O)CN(C(C)C)C2=O)c1 | 49 |  |
| COc1cc(OC(C)C)ccc1/C(O)=C1\C(=O)CN(C(C)C)C1=O | 57 |  |
| COc1ccc(/C(O)=C2\C(=O)CN(Cc3ccccc3)C2=O)cc1 | 14 |  |
| COc1ccc(C(=O)C2=C(O)N(C(C)C)CCC2=O)c(OC)c1 | 6 |  |
| COc1ccc(/C(O)=C2\C(=O)CN(C3CC3)C2=O)cc1 | 62 |  |
| COc1ccccc1/C(O)=C1\C(=O)CN(C(C)(C)C)C1=O | 75 |  |
| COc1ccc(/C(O)=C2\C(=O)C(C)N(C(C)C)C2=O)c(OC)c1 (configuration not stated) | 25 |  |

| SMILES | inhibition at 10 µg/mL [9] [%] | further results |
| --- | --- | --- |
| CCC(C)N1CC(=O)/C(=C(/O)c2ccc(OC)cc2)C1=O (configuration not stated) | 64 |  |
| Cc1cccc(/C(O)=C2\C(=O)CN(C(C)(C)C)C2=O)c1 | 5 |  |
| O=C1CN(C2CC2)C(=O)/C1=C(\O)c1cccc(Oc2ccccc2)c1 | 58 |  |
| CCOc1ccc(/C(O)=C2\C(=O)CN(C(C)CC)C2=O)c(OC)c1 (configuration not stated) | 68 |  |
| CCC(C)N1CC(=O)/C(=C(/O)c2cc(C)cc(C)c2)C1=O (configuration not stated) | 9 |  |
| CCCCOc1ccc(/C(O)=C2\C(=O)CN(C(C)C)C2=O)cc1 | 21 |  |
| CC(C)N1CC(=O)/C(=C(/O)c2cccc(Oc3ccccc3)c2)C1=O | 57 |  |
| CCCOc1ccc(/C(O)=C2\C(=O)CN(C(C)C)C2=O)cc1 | 73 |  |
| CCC(C)N1CC(=O)/C(=C(/O)c2cccc(Oc3ccccc3)c2)C1=O (configuration not stated) | 58 |  |
| COc1ccc(/C(O)=C2\C(=O)CN(C(C)C)C2=O)cc1 | 80 |  |
| Cc1ccc(/C(O)=C2\C(=O)CN(C(C)(C)C)C2=O)cc1 | 36 |  |
| COc1ccccc1/C(O)=C1\C(=O)CN(Cc2ccccc2)C1=O | 14 |  |
| CC(C)N1CC(=O)/C(=C(/O)c2ccc(OCc3ccccc3)cc2)C1=O | 39 |  |
| Cc1cccc(/C(O)=C2\C(=O)CN(C)C2=O)c1 | 25 |  |
| CCCCCc1ccc(/C(O)=C2\C(=O)CN(C(C)C)C2=O)cc1 | 6 |  |
| CCC(C)N1CC(=O)/C(=C(/O)c2ccc(OC)c(OC)c2)C1=O (configuration not stated) | 9 |  |
| COc1cc(OC(C)C)ccc1/C(O)=C1\C(=O)C(C)N(C(C)C)C1=O (configuration not stated) | 9 |  |
| COc1ccc(C/C(O)=C2/C(=O)CN(C(C)C)C2=O)cc1 | 5 |  |
| COc1ccccc1/C(O)=C1\C(=O)CN(C(C)C)C1=O | 77 | inhibition at 93.75 g/ha [3]: 0%; inhibition at 187.5 g/ha [4]: 0%; inhibition at 750 g/ha [5]: 73%; inhibition at 375 g/ha [6]: 28% |
| CCOc1ccc(C(=O)C2=C(O)N(C(C)C)CCC2=O)cc1 | 15 |  |
| CCCCOc1cccc(/C(O)=C2\C(=O)CN(C(C)CC)C2=O)c1 (configuration not stated) | 32 |  |
| CC(C)N1CC(=O)/C(=C(/O)c2ccc(Cl)cc2)C1=O | 25 |  |
